{"source": "paper PMC5218480", "about": "(PLoS ONE, 2017)", "system": "MV-4-11 cells", "test": "Gene expression microarray analysis (Affymetrix PrimeView) and GSEA", "assay_type": "cell-based, human", "set-up": "RFU PODN (11730768_x_at) / Fold change /veh PODN (11730768_x_at) / RFU LINC00158 (11744669_a_at) / Fold change /veh LINC00158 (11744669_a_at) / RFU DUSP10 (11751237_a_at) / Fold change /veh DUSP10 (11751237_a_at) / RFU ID3 (11757404_x_at) / Fold change /veh ID3 (11757404_x_at) / RFU PLEKHG5 (11737974_s_at) / Fold change /veh PLEKHG5 (11737974_s_at) / RFU LRRC4B (11730491_at) / Fold change /veh LRRC4B (11730491_at) / RFU GIMAP4 (11747438_a_at) / Fold change /veh GIMAP4 (11747438_a_at) / RFU KRT8 (11758183_x_at) / Fold change /veh KRT8 (11758183_x_at) / RFU CNN1 (11734310_a_at) / Fold change /veh CNN1 (11734310_a_at) / RFU VPS37D (11726825_at) / Fold change /veh VPS37D (11726825_at) / RFU C10orf10 (11716522_x_at) / Fold change /veh C10orf10 (11716522_x_at) / RFU KIR2DL2 /// KIR2DL4 /// KIR2DL5A /// KIR2DL5B /// KIR2DS1 /// KIR2DS2 /// KIR2DS3 /// KIR2DS4 /// KIR3DL3 /// KIR3DL3 /// KIR3DS1 (11738374_at) / Fold change /veh KIR2DL2 /// KIR2DL4 /// KIR2DL5A /// KIR2DL5B /// KIR2DS1 /// KIR2DS2 /// KIR2DS3 /// KIR2DS4 /// KIR3DL3 /// KIR3DL3 /// KIR3DS1 (11738374_at) / RFU C1QL1 (11718748_at) / Fold change /veh C1QL1 (11718748_at) / RFU TMPRSS4 (11747572_a_at) / Fold change /veh TMPRSS4 (11747572_a_at) / RFU HAMP (11756126_x_at) / Fold change /veh HAMP (11756126_x_at) / RFU RNFT2 (11725882_a_at) / Fold change /veh RNFT2 (11725882_a_at) / RFU NR4A2 (11747474_a_at) / Fold change /veh NR4A2 (11747474_a_at) / RFU ABCC12 (11746883_a_at) / Fold change /veh ABCC12 (11746883_a_at) / RFU TMEM136 (11760407_x_at) / Fold change /veh TMEM136 (11760407_x_at) / RFU CLDN22 /// WWC2 (11732394_at) / Fold change /veh CLDN22 /// WWC2 (11732394_at) / RFU HLA-DPB1 (11760878_x_at) / Fold change /veh HLA-DPB1 (11760878_x_at) / RFU SPINT1 (11716480_a_at) / Fold change /veh SPINT1 (11716480_a_at) / RFU GAP43 (11754022_s_at) / Fold change /veh GAP43 (11754022_s_at) / RFU A4GNT (11735810_at) / Fold change /veh A4GNT (11735810_at) / RFU PRB3 (11715151_x_at) / Fold change /veh PRB3 (11715151_x_at) / RFU TUBB4B (11761932_at) / Fold change /veh TUBB4B (11761932_at) / RFU CAPN14 (11732068_a_at) / Fold change /veh CAPN14 (11732068_a_at) / RFU TMCC2 (11721928_a_at) / Fold change /veh TMCC2 (11721928_a_at) / RFU IRGQ (11745062_a_at) / Fold change /veh IRGQ (11745062_a_at) / RFU FAM174B (11720279_a_at) / Fold change /veh FAM174B (11720279_a_at) / RFU TMPRSS4 (11748680_a_at) / Fold change /veh TMPRSS4 (11748680_a_at) / RFU FAM212B (11763350_a_at) / Fold change /veh FAM212B (11763350_a_at) / RFU PLEKHG5 (11743358_a_at) / Fold change /veh PLEKHG5 (11743358_a_at) / RFU ZSCAN30 (11745921_a_at) / Fold change /veh ZSCAN30 (11745921_a_at) / RFU CMKLR1 (11741424_a_at) / Fold change /veh CMKLR1 (11741424_a_at) / RFU LOC101060620 /// MAPK8IP1 (11723275_at) / Fold change /veh LOC101060620 /// MAPK8IP1 (11723275_at) / RFU SPTSSB (11747773_x_at) / Fold change /veh SPTSSB (11747773_x_at) / RFU PRSS12 (11739890_at) / Fold change /veh PRSS12 (11739890_at) / RFU BIN1 (11741810_x_at) / Fold change /veh BIN1 (11741810_x_at) / RFU WNT11 (11732464_a_at) / Fold change /veh WNT11 (11732464_a_at) / RFU C10orf10 (11716521_a_at) / Fold change /veh C10orf10 (11716521_a_at) / RFU C5orf56 (11738089_at) / Fold change /veh C5orf56 (11738089_at) / RFU CYB561 (11721691_x_at) / Fold change /veh CYB561 (11721691_x_at) / RFU ANKRD19P (11752326_a_at) / Fold change /veh ANKRD19P (11752326_a_at) / RFU OR2T12 /// OR2T33 /// OR2T8 (11738714_s_at) / Fold change /veh OR2T12 /// OR2T33 /// OR2T8 (11738714_s_at) / RFU VCAN (11748164_a_at) / Fold change /veh VCAN (11748164_a_at) / RFU JSRP1 (11732532_at) / Fold change /veh JSRP1 (11732532_at) / RFU KRTAP10-11 (11738290_x_at) / Fold change /veh KRTAP10-11 (11738290_x_at) / RFU MYO3A (11730013_a_at) / Fold change /veh MYO3A (11730013_a_at) / RFU EBF3 (11725865_a_at) / Fold change /veh EBF3 (11725865_a_at) / RFU CAMK2N1 (11719241_x_at) / Fold change /veh CAMK2N1 (11719241_x_at) / RFU C5orf56 (11738088_a_at) / Fold change /veh C5orf56 (11738088_a_at) / RFU OLFML3 (11715873_a_at) / Fold change /veh OLFML3 (11715873_a_at) / RFU LOC100653217 /// NTM (11731650_a_at) / Fold change /veh LOC100653217 /// NTM (11731650_a_at) / RFU MAPK11 (11762145_a_at) / Fold change /veh MAPK11 (11762145_a_at) / RFU FIZ1 (11724087_x_at) / Fold change /veh FIZ1 (11724087_x_at) / RFU OASL (11726364_x_at) / Fold change /veh OASL (11726364_x_at) / RFU SOX15 (11748057_x_at) / Fold change /veh SOX15 (11748057_x_at) / RFU CD79A (11719716_a_at) / Fold change /veh CD79A (11719716_a_at) / RFU HIST1H1D (11736915_at) / Fold change /veh HIST1H1D (11736915_at) / RFU CASKIN2 (11723855_a_at) / Fold change /veh CASKIN2 (11723855_a_at) / RFU LOC730098 (11760151_x_at) / Fold change /veh LOC730098 (11760151_x_at) / RFU OR4N2 (11742367_at) / Fold change /veh OR4N2 (11742367_at) / RFU PRRT2 (11749266_a_at) / Fold change /veh PRRT2 (11749266_a_at) / RFU SNX32 (11753110_a_at) / Fold change /veh SNX32 (11753110_a_at) / RFU CDHR5 (11726645_a_at) / Fold change /veh CDHR5 (11726645_a_at) / RFU RCAN1 (11760418_a_at) / Fold change /veh RCAN1 (11760418_a_at) / RFU FAM167A (11723789_a_at) / Fold change /veh FAM167A (11723789_a_at) / RFU FAM26E (11764081_at) / Fold change /veh FAM26E (11764081_at) / RFU ISYNA1 (11749810_s_at) / Fold change /veh ISYNA1 (11749810_s_at) / RFU ACY1 (11761880_at) / Fold change /veh ACY1 (11761880_at) / RFU 11764098_at / Fold change /veh 11764098_at / RFU SAMD14 (11745864_x_at) / Fold change /veh SAMD14 (11745864_x_at) / RFU NPB (11741838_a_at) / Fold change /veh NPB (11741838_a_at) / RFU TMPRSS6 (11731388_a_at) / Fold change /veh TMPRSS6 (11731388_a_at) / RFU KRTAP10-2 (11738614_at) / Fold change /veh KRTAP10-2 (11738614_at) / RFU ARHGAP8 /// PRR5-ARHGAP8 (11727945_x_at) / Fold change /veh ARHGAP8 /// PRR5-ARHGAP8 (11727945_x_at) / RFU KRTAP5-7 /// NADSYN1 (11734609_at) / Fold change /veh KRTAP5-7 /// NADSYN1 (11734609_at) / RFU RASL12 (11751679_a_at) / Fold change /veh RASL12 (11751679_a_at) / RFU CDKN2B (11736163_a_at) / Fold change /veh CDKN2B (11736163_a_at) / RFU PRF1 (11729649_at) / Fold change /veh PRF1 (11729649_at) / RFU, ZNF638 /// ZNF638-IT1 / Fold change vs veh, ZNF638 /// ZNF638-IT1 / RFU, PANK3 / Fold change vs veh, PANK3 / RFU, SH3YL1 / Fold change vs veh, SH3YL1 / RFU, ZEB2 / Fold change vs veh, ZEB2 / RFU, NRIP1 / Fold change vs veh, NRIP1 / RFU, PTTG1IP / Fold change vs veh, PTTG1IP / RFU, CAPN2 / Fold change vs veh, CAPN2 / RFU, MED14 / Fold change vs veh, MED14 / RFU, SNORA58 / Fold change vs veh, SNORA58 / RFU, C1orf63 / Fold change vs veh, C1orf63 / RFU, LRRFIP1 / Fold change vs veh, LRRFIP1 / RFU, NDUFAF7 / Fold change vs veh, NDUFAF7 / RFU, SLC12A2 / Fold change vs veh, SLC12A2 / RFU, IBTK / Fold change vs veh, IBTK / RFU, ESF1 / Fold change vs veh, ESF1 / Fold change vs veh, TMEM50B / RFU, TAOK1 / Fold change vs veh, TAOK1 / RFU, ACBD3 / Fold change vs veh, ACBD3 / RFU, TMA16 / Fold change vs veh, TMA16 / RFU, RWDD3 / Fold change vs veh, RWDD3 / RFU, BCAT1 / Fold change vs veh, BCAT1 / RFU, EDEM3 / Fold change vs veh, EDEM3 / RFU, TMEM33 / Fold change vs veh, TMEM33 / RFU, WDR75 / Fold change vs veh, WDR75 / RFU, AHCTF1 / Fold change vs veh, AHCTF1 / RFU, TFRC / Fold change vs veh, TFRC / RFU, ZDHHC17 / Fold change vs veh, ZDHHC17 / RFU, NOM1 / Fold change vs veh, NOM1 / RFU, ARL8B / Fold change vs veh, ARL8B / RFU, ZBTB11 / Fold change vs veh, ZBTB11 / RFU, TAMM41 / Fold change vs veh, TAMM41 / RFU, KIAA1704 /// LOC100996395 / Fold change vs veh, KIAA1704 /// LOC100996395 / RFU, ING1 / Fold change vs veh, ING1 / RFU, TRMT61B / Fold change vs veh, TRMT61B / RFU, FUBP3 / Fold change vs veh, FUBP3 / RFU, TP53 / Fold change vs veh, TP53 / RFU, TNKS2 / Fold change vs veh, TNKS2 / RFU, ZFP14 / Fold change vs veh, ZFP14 / RFU, ACTR2 / Fold change vs veh, ACTR2 / RFU, PPP3R1 / Fold change vs veh, PPP3R1 / RFU, PIK3R1 / Fold change vs veh, PIK3R1 / RFU, HNRNPA1 / Fold change vs veh, HNRNPA1 / RFU, RNF170 / Fold change vs veh, RNF170 / RFU, ZNF28 / Fold change vs veh, ZNF28 / RFU, RNGTT / Fold change vs veh, RNGTT / RFU, OGT / Fold change vs veh, OGT / RFU, BRD1 / Fold change vs veh, BRD1 / RFU, MARS / Fold change vs veh, MARS / RFU, ZNF655 / Fold change vs veh, ZNF655 / RFU, FAHD1 / Fold change vs veh, FAHD1 / RFU, BDP1 / Fold change vs veh, BDP1 / RFU, LRRCC1 / Fold change vs veh, LRRCC1 / RFU, ARID1A / Fold change vs veh, ARID1A / RFU, ZNF146 / Fold change vs veh, ZNF146 / RFU, ZNF330 / Fold change vs veh, ZNF330 / RFU, GPN3 / Fold change vs veh, GPN3 / RFU, C9orf123 / Fold change vs veh, C9orf123 / RFU, N4BP2L2 / Fold change vs veh, N4BP2L2 / RFU, ARFIP1 / Fold change vs veh, ARFIP1 / RFU, FAM179B / Fold change vs veh, FAM179B / RFU, BCL10 / Fold change vs veh, BCL10 / RFU, UHRF1BP1L / Fold change vs veh, UHRF1BP1L / RFU, BET1 / Fold change vs veh, BET1 / RFU, CNOT2 / Fold change vs veh, CNOT2 / RFU, ZNF268 / Fold change vs veh, ZNF268 / Fold change vs veh, ZNF507 / RFU, DGCR2 / Fold change vs veh, DGCR2 / RFU, WDSUB1 / Fold change vs veh, WDSUB1 / Fold change vs veh, HSP90B1 /// MIR3652 / RFU, ADSS / Fold change vs veh, ADSS / RFU, GK / Fold change vs veh, GK / RFU, ZNF148 / Fold change vs veh, ZNF148 / RFU, TAF9 / Fold change vs veh, TAF9 / RFU, SLC1A5 / Fold change vs veh, SLC1A5 / RFU, SLMO2 / Fold change vs veh, SLMO2 / RFU, ABCC4 / Fold change vs veh, ABCC4 / RFU, LOC101060439 /// RAP1B / Fold change vs veh, LOC101060439 /// RAP1B / RFU, RFX7 / Fold change vs veh, RFX7 / RFU, GTPBP10 / Fold change vs veh, GTPBP10 / RFU, CNEP1R1 / Fold change vs veh, CNEP1R1 / RFU, BIVM-ERCC5 /// ERCC5 / Fold change vs veh, BIVM-ERCC5 /// ERCC5 / RFU, ILF3 / Fold change vs veh, ILF3 / RFU 11762660_at / Fold change /veh 11762660_at / RFU VCAN (11757783_s_at) / Fold change /veh VCAN (11757783_s_at) / RFU DDX43 (11728927_at) / Fold change /veh DDX43 (11728927_at) / RFU KRT8 (11758188_x_at) / Fold change /veh KRT8 (11758188_x_at) / RFU NKD1 (11759106_at) / Fold change /veh NKD1 (11759106_at) / RFU SRD5A1 (11742802_a_at) / Fold change /veh SRD5A1 (11742802_a_at) / RFU TPSAB1 /// TPSB2 (11721975_s_at) / Fold change /veh TPSAB1 /// TPSB2 (11721975_s_at) / RFU GSTM3 (11746129_a_at) / Fold change /veh GSTM3 (11746129_a_at) / RFU IL23R (11737362_x_at) / Fold change /veh IL23R (11737362_x_at) / RFU TMEM51 (11727254_a_at) / Fold change /veh TMEM51 (11727254_a_at) / RFU PIWIL2 (11732686_x_at) / Fold change /veh PIWIL2 (11732686_x_at) / RFU ORM1 (11744905_x_at) / Fold change /veh ORM1 (11744905_x_at) / RFU CCDC152 (11743942_at) / Fold change /veh CCDC152 (11743942_at) / RFU ECM1 (11717891_a_at) / Fold change /veh ECM1 (11717891_a_at) / RFU IL23R (11748794_a_at) / Fold change /veh IL23R (11748794_a_at) / RFU TNFAIP8L3 (11732012_x_at) / Fold change /veh TNFAIP8L3 (11732012_x_at) / RFU MBOAT4 (11741988_at) / Fold change /veh MBOAT4 (11741988_at) / RFU 11764193_at / Fold change /veh 11764193_at / RFU TMEM53 (11763286_at) / Fold change /veh TMEM53 (11763286_at) / RFU MAGEB2 (11727129_at) / Fold change /veh MAGEB2 (11727129_at) / RFU TMEM200A (11744735_a_at) / Fold change /veh TMEM200A (11744735_a_at) / RFU CCDC152 (11751479_a_at) / Fold change /veh CCDC152 (11751479_a_at) / RFU FAM211A (11726209_a_at) / Fold change /veh FAM211A (11726209_a_at) / RFU RGS16 (11746705_a_at) / Fold change /veh RGS16 (11746705_a_at) / RFU VCAN (11755009_s_at) / Fold change /veh VCAN (11755009_s_at) / RFU RHOB (11743442_s_at) / Fold change /veh RHOB (11743442_s_at) / RFU RGS16 (11720943_a_at) / Fold change /veh RGS16 (11720943_a_at) / RFU RGS16 (11720944_at) / Fold change /veh RGS16 (11720944_at) / RFU, VPS4B / Fold change vs veh, VPS4B / RFU, CREB1 / Fold change vs veh, CREB1 / RFU, DNAJC13 / Fold change vs veh, DNAJC13 / RFU, GNAQ / Fold change vs veh, GNAQ / RFU, CDK5R1 / Fold change vs veh, CDK5R1 / RFU, ZRANB3 / Fold change vs veh, ZRANB3 / RFU, CUL4A / Fold change vs veh, CUL4A / RFU, CCNY / Fold change vs veh, CCNY / RFU, UFL1 / Fold change vs veh, UFL1 / RFU, COG3 / Fold change vs veh, COG3 / RFU, DIAPH2 / Fold change vs veh, DIAPH2 / RFU, SKA2 / Fold change vs veh, SKA2 / RFU, AFF3 / Fold change vs veh, AFF3 / RFU, LMF1 / Fold change vs veh, LMF1 / RFU, IPO11 / Fold change vs veh, IPO11 / RFU, DFFB / Fold change vs veh, DFFB / RFU, FOXP1 / Fold change vs veh, FOXP1 / RFU, CARD8 / Fold change vs veh, CARD8 / RFU, STRN3 / Fold change vs veh, STRN3 / RFU, ADK / Fold change vs veh, ADK / RFU, RASSF2 / Fold change vs veh, RASSF2 / RFU, WIPF1 / Fold change vs veh, WIPF1 / RFU, LARP1B / Fold change vs veh, LARP1B / RFU, RASA1 / Fold change vs veh, RASA1 / RFU, RB1 / Fold change vs veh, RB1 / RFU, PPFIA1 / Fold change vs veh, PPFIA1 / RFU, MAT2A / Fold change vs veh, MAT2A / RFU, CCT5 / Fold change vs veh, CCT5 / RFU, WDR92 / Fold change vs veh, WDR92 / RFU, CUX1 / Fold change vs veh, CUX1 / RFU, TTC7A / Fold change vs veh, TTC7A / RFU, TMEM135 / Fold change vs veh, TMEM135 / RFU, DEPTOR / Fold change vs veh, DEPTOR / RFU, CPM / Fold change vs veh, CPM / RFU, DNAJB6 / Fold change vs veh, DNAJB6 / RFU, CACNA2D3 / Fold change vs veh, CACNA2D3 / RFU, DTX4 / Fold change vs veh, DTX4 / RFU, TFCP2 / Fold change vs veh, TFCP2 / RFU, GMCL1 /// GMCL1P1 / Fold change vs veh, GMCL1 /// GMCL1P1 / RFU, AEBP2 / Fold change vs veh, AEBP2 / RFU, SNHG1 /// SNORD22 /// SNORD25 /// SNORD26 /// SNORD27 /// SNORD28 /// SNORD29 /// SNORD31 / Fold change vs veh, SNHG1 /// SNORD22 /// SNORD25 /// SNORD26 /// SNORD27 /// SNORD28 /// SNORD29 /// SNORD31 / Fold change (Aza/veh), C12orf56 (ProbeSet 11735607_a_at) / Fold change (ACY-1035/veh), C12orf56 (ProbeSet 11735607_a_at) / Fold change (Aza/veh), FGFR1OP (ProbeSet 11751329_s_at) / Fold change (ACY-1035/veh), FGFR1OP (ProbeSet 11751329_s_at) / Fold change (Aza/veh), VPS36 (ProbeSet 11739960_a_at) / Fold change (ACY-1035/veh), VPS36 (ProbeSet 11739960_a_at) / RFU SYPL1 (11715823_x_at) / Fold change /veh SYPL1 (11715823_x_at) / RFU IGFBP7 (11715501_s_at) / Fold change /veh IGFBP7 (11715501_s_at) / RFU REEP3 (11722064_at) / Fold change /veh REEP3 (11722064_at) / RFU IGLL1 (11728026_x_at) / Fold change /veh IGLL1 (11728026_x_at): dose or concentration left out as unconfirmed", "conditions": "MV-4-11 cells, 48 hours"}
{"smiles": "Nc1ccc(-c2cccs2)cc1NC(=O)c1ccc2c(c1)cc(C1CC1)n2CCN1CCOCC1", "note": "[ACY-1035]", "values": [{"measurement": "RFU KRTAP10-11 (11738290_x_at)", "value": 38.61, "unit": "RFU"}]}
